Results from patent US20110060000A1, “ACRIDINE ANALOGS IN THE TREATMENT OF GLIOMAS” (priority 2009, published 2011).

Key:
[1] = system: C6 cells; details: tested at less than 1 μM; cited from earlier work
[2] = system: GRP78; test: GRP78 protein expression (SDS-PAGE, immunoblot) in astrocytes; assay type: cell-based, rat; details: for GRP78 levels in astrocytes after challenge: brief exposure (8 h), FIG. 11; for GRP78 protein expression in astrocytes: graded concentrations, THAP 24 hours, TUN 8 hours
Description: Astrocytes and C6 were exposed to graded concentration of THAP as indicated in the captions for 24 hours. Thereafter, protein were extracted and run on a SDS-PAGE and immunoblotted with an anti-GRP78 antibody. Filters were exposed to ECL and films were impressed and developed (Panel B). Films were digitalized using a high resolution scanner and analyzed used imageJ (NIH). Densitometric values were averaged and plotted in the graph (Panel A). Loading conditions were checked using GAPDH housekeeping gene.
Astrocytes and C6 were exposed to TUN for 8 hours at concentrations ranging from 1.25 μg/ml to 10 μg/ml. Proteins were extracted, separated on a SDS-PAGE and immunoblotted. Filters were exposed to ECL and used to impress films (Panel B). Developed films were subsequently digitized with a high resolution scanner and analyzed with the software ImageJ (NIH). Densitometric values were averaged and plotted in the graph (Panel A).
(§1) Cells were treated as specified in the graph labeling. It is evident that glioma cells have enhanced GRP78 expression than astrocytes regardless of the challenging agent. N.T.=untreated; D=DMSO; T=TUN; Th=THAP.

[3] = system: GRP78; test: GRP78 protein expression in U87-MG; assay type: cell-based, human; details: brief exposure (8 h), FIG. 11
Description: as §1
Also it has been speculated that the increased higher constitutive expression in glioma cells determines their resilience to the hostile growth environment, to pharmacological treatment and to radiotherapy. However, these studies were performed comparing human astrocytes from repositories to several human malignant cell lines both commercially available or from patients. […] Therefore, in light of the preliminary observations, experiments were conducted in order to further investigate the phenomenon with the aim to better understand it. Experiments were performed using primary rat astrocytes and their glioma counterpart, the C6 cells; also, human glioma cells, such as U87-MG, were used. The latter have been widely used in assessing human glioma properties. Unstimulated expression levels of GRP78 were compared in these cells. In FIG. 11 it is possible to view that unstimulated GRP78 expression in these three cell types is very low.

[4] = system: caspase 12; test: Procaspase 12 cleavage in C6; assay type: cell-based, rat
Description: (§2) Cells were treated with the agents as indicated in the x axis. Subsequently cells were harvested and protein was extracted and then separated via SDS-PAGE and immunoblotted. The arrow highlights the 45 kDa band that results from cleavage of procaspase 12 and corresponding to the active caspase.
(§3) Thereafter, cells were harvested and protein extracted. Procaspase 12 band at 65 kDa was identified. In some of the treatments, the active product at 45 kDa was also detected. […] Conversely, in C6, higher GRP78 levels and the cell environment reflect significant caspase activation. […] Caspase activation in ERSR conditions was also confirmed with a TUNEL based apoptosis detection system in C6. C6 were treated with THAP for 24 hours and thereafter processed for TUNEL accordingly to manufacturer instructions. Staurosporin, a well known inducer of apoptosis in glial cells, was also included as a positive control. High resolution images of the experiments were acquired and image morphometric analysis was performed to determine quantitative parameters of the staining as previously described (Pascale et al., 2004, “Translocation of protein kinase C-betaII in astrocytes requires organized actin cytoskeleton and is not accompanied by synchronous RACK1 relocation.” Glia 46(2): 169-82). […]

[5] = system: caspase 12; test: Procaspase 12 cleavage in astrocytes; assay type: cell-based, rat
Description: as §2, §3

[6] = system: C6; test: [Ca2+]i measurement in C6; assay type: cell-based, rat
Text: (§4) (Statistical analysis it is shown in the inset. Values at the peak of the response have been analyzed using ANOVA followed by T-test, ** indicate P<0.01.).
(§5) Ca^2+ mobilization from ER was caused using an agonist acting via inositol trisphosphate elevation, mimicking physiological responses. In these conditions the dynamics of Ca^2+ transients were observe in these two cell lines. It appears evident that the plateau phase in C6 is consistently larger than in astrocytes.
(§6) Panel A: Challenge of astrocytes with ATP show the unchanged typical spike and plateau response. Panel B: In C6 an oscillatory pattern is readily detectable in response to treatment with TUN.
Tools and protocols have been developed to cleanly observe capacitative Ca^2+ entry (CCE), the phenomenon that allows the replenishment of intracellular Ca^2+ (ICS) stores and make quantitative and qualitative assessments. In particular, in astrocytes, capacitative Ca^2+ entry happens in absence of cytoplasmic Ca^2+ concentration ([Ca^2+]i) elevation (Grimaldi; 2006)(FIG. 1). […] The study was designed to investigate if there was a difference between astrocytes and glial cancer cells in this distinctive homeostatic pattern. The findings presented in this study, indicate that there are striking differences between glial cells and their cancer counterpart. The model utilizes rat cells but the observations extend and apply to human glioma cells as well. When the responses of normal astrocytes and C6 cells to thapsigargin (THAP), an agent able to block SERCA, therefore causing the release of Ca^2+ from the ER, were compared it was evident that C6 was more sensitive to the THAP (FIG. 2). However, the difference can be ascribed to one of many possibilities. […]
(§7) This phase is dependent on the balance of Ca^2+ influx triggered by store depletion and the reuptake in the ER due to SERCA activity. […] To investigate the role of influx triggered by ICS depletion, CCE was analyzed following THAP-induced depletion of ICS. […]

[7] = system: astrocytes; test: [Ca2+]i measurement in astrocytes; assay type: cell-based, rat
Text: as §4, §5, §6
Tools and protocols have been developed to cleanly observe capacitative Ca^2+ entry (CCE), the phenomenon that allows the replenishment of intracellular Ca^2+ (ICS) stores and make quantitative and qualitative assessments. In particular, in astrocytes, capacitative Ca^2+ entry happens in absence of cytoplasmic Ca^2+ concentration ([Ca^2+]i) elevation (Grimaldi; 2006)(FIG. 1). […]
as §7

Compound | killing of C6 cells [1] | GRP78 levels in astrocytes after challenge [2] | GRP78 protein expression in astrocytes [2] | GRP78 expression in U87-MG after challenge [3] | activation of caspase 12 (45 kDa active product) in C6 [4] | activation of caspase 12 in astrocytes [5] | Ca2+ transients in C6 after TUN pretreatment ([6]; challenge with ATP) | Ca2+ transients in astrocytes after TUN pretreatment ([7]; challenge with ATP) | [Ca2+]i elevation in C6 ([6]; 2 μM THAP) | [Ca2+]i elevation in astrocytes ([7]; 2 μM THAP)
CCN(CC)CCCC(C)Nc1c2ccc(Cl)cc2nc2ccc(OC)cc12 (stereo not drawn) [quinacrine] | ineffective in killing C6 cells | – | – | – | – | – | – | – | – | –
tunicamycin | – | always significantly lower than levels reached in C6 and U87-MG | concentration related elevation of GRP78 protein expression | enhanced significantly | significant activation of caspase 12 | completely unresponsive | appearance of [Ca^2+]i oscillations at high frequency and high amplitude | transients were not changed | – | –
C/C=C(/C)C(=O)O[C@H]1C(C)=C2[C@H]([C@@H]1OC(=O)CCCCCCC)[C@@](C)(OC(C)=O)C[C@H](OC(=O)CCC)[C@@]1(O)[C@H]2OC(=O)[C@@]1(C)O [THAP, thapsigargin] | – | always significantly lower than levels reached in C6 and U87-MG | increased GRP78 expression | enhanced significantly | significant activation of caspase 12 | completely unresponsive | – | – | significantly higher than in astrocytes | caused elevation of [Ca^2+]i
